T1: Flag-epitope tag ZNF281 fusion protein (human, UniProt Q9Y2X9 1-895)
T1 construct: Expressed in transfected HEK293 cells and tested in cell lysate; also called FLAG-tagged ZNF281; Flag-tagged ZNF281
T1 sequence: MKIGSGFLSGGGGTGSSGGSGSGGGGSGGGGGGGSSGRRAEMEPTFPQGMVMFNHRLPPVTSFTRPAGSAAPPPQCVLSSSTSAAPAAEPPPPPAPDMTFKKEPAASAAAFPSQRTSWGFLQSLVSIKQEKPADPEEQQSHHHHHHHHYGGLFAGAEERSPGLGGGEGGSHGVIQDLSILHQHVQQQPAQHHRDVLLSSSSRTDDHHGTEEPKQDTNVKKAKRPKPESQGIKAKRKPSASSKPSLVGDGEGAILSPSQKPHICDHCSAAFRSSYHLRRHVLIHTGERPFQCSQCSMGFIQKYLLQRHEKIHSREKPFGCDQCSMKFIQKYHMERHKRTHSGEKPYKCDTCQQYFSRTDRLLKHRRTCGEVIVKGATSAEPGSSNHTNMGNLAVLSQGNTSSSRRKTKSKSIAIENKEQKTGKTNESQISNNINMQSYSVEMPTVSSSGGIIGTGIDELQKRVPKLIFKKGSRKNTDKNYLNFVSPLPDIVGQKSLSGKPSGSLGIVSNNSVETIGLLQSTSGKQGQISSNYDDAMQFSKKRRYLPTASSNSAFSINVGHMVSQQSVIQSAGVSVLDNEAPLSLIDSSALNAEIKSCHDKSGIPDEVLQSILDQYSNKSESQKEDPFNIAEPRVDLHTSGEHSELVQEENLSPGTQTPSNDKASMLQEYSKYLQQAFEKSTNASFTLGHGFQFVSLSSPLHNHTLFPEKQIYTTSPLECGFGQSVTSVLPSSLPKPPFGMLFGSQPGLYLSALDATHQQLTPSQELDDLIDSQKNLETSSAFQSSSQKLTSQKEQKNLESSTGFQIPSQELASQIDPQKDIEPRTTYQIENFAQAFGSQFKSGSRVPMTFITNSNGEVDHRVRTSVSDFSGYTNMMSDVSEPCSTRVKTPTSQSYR


Legend:
[1] = tested on: fibroblasts; conditions: added to reprogramming cocktail (GMT); cited from earlier work
[2] = molecular target: GATA4 (expression plasmid, luciferase reporter assay) (human) (UniProt P43694); experiment: cell-based or functional assay
GATA4 (expression plasmid, luciferase reporter assay) (human), sequence (P43694 whole entry): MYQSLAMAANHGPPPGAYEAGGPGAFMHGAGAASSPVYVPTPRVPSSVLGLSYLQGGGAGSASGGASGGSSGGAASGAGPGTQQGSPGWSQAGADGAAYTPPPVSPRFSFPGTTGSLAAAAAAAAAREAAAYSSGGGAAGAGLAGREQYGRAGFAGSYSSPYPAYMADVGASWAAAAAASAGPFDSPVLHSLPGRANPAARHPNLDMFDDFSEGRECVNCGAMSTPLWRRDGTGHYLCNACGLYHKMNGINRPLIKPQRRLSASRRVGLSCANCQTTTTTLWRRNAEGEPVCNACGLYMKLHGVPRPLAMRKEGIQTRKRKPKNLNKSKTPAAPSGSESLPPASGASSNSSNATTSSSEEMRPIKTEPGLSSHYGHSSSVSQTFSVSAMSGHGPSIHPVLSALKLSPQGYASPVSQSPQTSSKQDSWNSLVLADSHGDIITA

[3] = tested on: adult tail-tip fibroblasts (TTFs) from αMHC-GFP mice; experiment: Human retroviral ORF cDNA library screen for AGHMT-mediated cardiac reprogramming (high-throughput imaging of αMHC-GFP and cTnT); format: cell-based, mouse; conditions: for cTnT Z-score / αMHC Z-score: individual cDNA expressed together with 5F (AGHMT), 9 days, Z-score ≥2 activator, ≤−2 inhibitor; for αMHC Z-score: αMHC-GFP; for 5F-mediated cardiac reprogramming (αMHC-GFP, cTnT immunocytochemistry): virus added to 5F (AGHMT), 9 days post-infection
From the text: Isolation of mouse tail-tip fibroblast. For isolation of adult mouse tail-tip fibroblasts, tails were cut from 8-12 weeks old adult wild-type or αMHC-GFP mouse and were minced into […] with razor blades after peeling off the superficial dermis. The minced tails were placed in fibroblast growth medium (DMEM supplemented with 10% FBS and 1% (vol/vol) penicillin/streptomycin). Tail-tip fibroblasts migrated out from the explants within 1 week and were passaged one time before use.
Construction of human retroviral ORFs library. Gateway-compatible Human ORFs pEntry vectors were purchased from Thermo Fisher Scientific. Gateway-compatible retroviral destination vector, pMXs-gw, was a gift from Shinya Yamanaka (Addgene plasmid #18656) (Takahashi, 2006). The inventors transferred each ORF individually into pMXs-gw by performing site-specific LR recombination using Gateway LR Clonase II Enzyme Mix kit (Thermo Fisher Scientific).
(§1) Retroviruses production, cellular reprogramming and treatment. For retroviruses production, Platinum E cells were seeded into culture dishes (1×10^5 cells/cm2) one day before transfection in DMEM supplemented with 10% FBS and 1% penicillin/streptomycin. Cells reached ˜80% confluency on the day of transfection. DNA plasmids were transfected into Platinum E cells using FuGENE 6 transfection reagent. Twenty-four hours after transfection, wild type or αMHC-GFP tail-tip fibroblasts were seeded into culture dishes or plates that were precoated with SureCoat (Cellutron) for one hour at a density of 6×10^4/cm^2. Forty-eight hours after transfection, polybrene was added to viral medium that was filtered through a 0.45-μm filter at a concentration of […]. The mixture replaced the growth medium in the cell culture plate with tail-tip fibroblasts. The viral infection was serially repeated twice. Twenty-four hours after the second infection, the viral medium was replaced with induction medium, composed of DMEM/199 (4:1), 10% conditioned medium obtained from neonatal rat cardiomyocyte culture, 10% FBS, 5% horse serum, 1% penicillin/streptomycin, 1% nonessential amino acids, 1% essential amino acids, 1% B-27, 1% insulin-selenium-transferrin, 1% vitamin mixture, and 1% sodium pyruvate (Invitrogen). Small molecule treatments were used throughout the reprogramming process 1004 dexamethasone (Dex), and 1004 nabumetone (Sigma).
Immunocytochemistry. For immunocytochemistry, cells were fixed in 4% paraformaldehyde for 15 min and permeabilized with 0.1% Triton-X in room temperature. Cells were washed with PBS for three times followed by blocking with 10% goat serum for 1 hr. Cells then were incubated with mouse monoclonal anti-cardiac Troponin T (cTnT) antibody (Thermo Scientific) at 1:500 dilutions and rabbit anti-GFP antibody (Thermo Scientific) at 1:500 dilutions in 5% Goat serum for 1 hr. After washing with PBS three times, Cells then were incubated with donkey anti-mouse alexa fluor 647 (Invitrogen) at 1:500 and goat anti-rabbit Alexa fluor 488 at 1:500 (Invitrogen).
Identification of activators and inhibitors of cardiac reprogramming in adult fibroblasts. The inventors' previously optimized cardiac reprogramming protocol with five factors (AGHMT, also called 5F) was able to reprogram ˜3% efficiency of adult TTFs to iCMs as measured by activation of a cardiac-specific αMHC-GFP transgene and cardiac troponin T (cTnT) immunostaining (Zhou et al., 2015). To identify additional regulators of cardiac reprogramming, the inventors created a retroviral expression library consisting of 1,052 open reading frame (ORF) cDNAs representing 786 human transcription factor, cytokine, epigenetic regulator and nuclear receptor genes (Table 51). The inventors screened this expression library for activators and inhibitors of cardiac reprogramming by expressing individual cDNAs together with 5F in isolated TTFs from αMHC-GFP mice, as schematized in FIG. 1A. […]

[4] = tested on: 5F-reprogrammed TTFs; experiment: q-PCR of inflammatory and cardiac markers in 5F-reprogrammed TTFs treated with anti-inflammatory drugs; format: cell-based, mouse; conditions: drug 10 μM added to 5F, 7 days
Protocol: as §1, with “Small molecule treatments were used throughout the reprogramming process 1004 dexamethasone (Dex), and 1004 nabumetone (Sigma).” left out
Quantitative mRNA measurement. […]

[5] = tested on: 5F-reprogrammed adult αMHC-GFP transgenic TTFs; experiment: Immunocytochemistry and flow cytometry of αMHC-GFP and cTnT in 5F-reprogrammed TTFs treated with anti-inflammatory drugs; format: cell-based, mouse; conditions: drug added to 5F, 7 days
Protocol: Retroviruses production, cellular reprogramming and treatment. For retroviruses production, Platinum E cells were seeded into culture dishes (1×10^5 cells/cm2) one day before transfection in DMEM supplemented with 10% FBS and 1% penicillin/streptomycin. Cells reached ˜80% confluency on the day of transfection. DNA plasmids were transfected into Platinum E cells using FuGENE 6 transfection reagent. Twenty-four hours after transfection, wild type or αMHC-GFP tail-tip fibroblasts were seeded into culture dishes or plates that were precoated with SureCoat (Cellutron) for one hour at a density of 6×10^4/cm^2. Forty-eight hours after transfection, polybrene was added to viral medium that was filtered through a 0.45-μm filter at a concentration of […]. The mixture replaced the growth medium in the cell culture plate with tail-tip fibroblasts. The viral infection was serially repeated twice. […]
Flow Cytometry. […] Cells were washed with Perm/Wash buffer, and then analyzed using FACS Caliber (BD Sciences) and FlowJo software. […]

[6] = molecular target: T1, Flag-epitope tag ZNF281 fusion protein; experiment: co-immunoprecipitation from transfected HEK293 cells (anti-FLAG IP, anti-Myc blot)
Protocol: FIGS. 6A-F. ZNF281 interacts with GATA4 to synergistically activate cardiac genes. (FIG. 6A) Co-immunoprecipitation assays were performed using HEK293 cells transfected with equal amounts of plasmid DNA encoding Myc-tagged GATA4, HAND2, MEF2c, or TBX5 and/or Flag-tagged ZNF281. IP, immunoprecipitation; IB, immunoblot. (FIG. 6B) Luciferase reporter assays were performed using HEK293 cells transfected with equal amounts of ZNF281 and/or GATA4 expression plasmids, as indicated, along with αMHC-luciferase reporter plasmid. (FIG. 6C) Heat maps showing ChIP-seq data for H3K27ac in adult mouse heart, and ZNF281 and GATA4 binding in reprogrammed TTFs at ±5 kB around the peak center. ChIP-seq experiments were performed using TTFs infected with 6F for 2 days. (FIG. 6D) ZNF281 binding motif enriched within ZNF281 binding peaks. (FIG. 6E) GATA4 binding motif enriched within GATA4 binding peaks. (FIG. 6F) Venn diagram showing the number of overlapping peaks between Heart H3K27ac, ZNF281 and GATA4. *P<0.05
Immunoprecipitation and Western Blot Analysis. Flag-epitope tag ZNF281 fusion protein were co-expressed with myc-epitope tag fusion GATA4, HAND2, MEF2C or TBX5 in HEK293 cells for 48 hours. […] The final elution and the input obtained before the immunoprecipitation was analyzed by SDS-PAGE western blot using a mouse monoclonal anti-Myc antibody (Novex) or mouse monoclonal anti-FLAG antibody (Sigma).

| Molecule | cTnT Z-score [3] | αMHC Z-score [3] | 5F-mediated cardiac reprogramming (αMHC-GFP, cTnT immunocytochemistry) [3] | also measured |
| --- | --- | --- | --- | --- |
| C[C@H](NC(=O)Cc1cc(F)cc(F)c1)C(=O)N[C@H](C(=O)OC(C)(C)C)c1ccccc1 [DAPT] | – | – | – | cardiac reprogramming [1]: enhance cardiac reprogramming |
| NC(=O)c1ccc(-c2nc(-c3ccc4c(c3)OCO4)c(-c3ccccn3)[nH]2)cc1 [SB431542] | – | – | – | cardiac reprogramming [1]: enhance cardiac reprogramming |
| ZNF281 (expression plasmid, luciferase reporter assay) (from UniProt Q9Y2X9 1-895) | – | – | – | αMHC-Luciferase reporter activation [2]: 15 fold |
| forkhead box protein A3 [FOXA3] | −3.1 | −4.3 | practically abolished | – |
| Achaete-scute homolog 1 [ASCL1] | 3.9 | 0.0 | greatly enhanced reprogramming | – |
| BMP2 | 0.5 | −3.2 | – | – |
| COc1ccc2cc(CCC(C)=O)ccc2c1 [nabumetone] | – | – | – | expression of inflammatory markers (IL6, Ccl2, and Ptgs1) [4]: decreased; cardiac reprogramming efficiency [5]: greatly enhanced |
| PHD finger protein 7 [PHF7] | 9.7 | 7.4 | enhanced reprogramming | – |
| myc-epitope tag fusion TBX5 (other, not shown: small tags and cut ends, Expressed in transfected HEK293 cells; The tag's position is unknown; also called Myc-tagged TBX5; T-box transcription factor TBX5) MADADEGFGLAHTPLEPDAKDLPCDSKPESALGAPSKSPSSPQAAFTQQGMEGIKVFLHERELWLKFHEVGTEMIITKAGRRMFPSYKVKVTGLNPKTKYILLMDIVPADDHRYKFADNKWSVTGKAEPAMPGRLYVHPDSPATGAHWMRQLVSFQKLKLTNNHLDPFGHIILNSMHKYQPRLHIVKADENNGFGSKNTAFCTHVFPETAFIAVTSYQNHKITQLKIENNPFAKGFRGSDDMELHRMSRMQSKEYPVVPRSTVRQKVASNHSPFSSESRALSTSSNLGSQYQCENGVSGPSQDLLPPPNPYPLPQEHSQIYHCTKRKEEECSTTDHPYKKPYMETSPSEEDSFYRSSYPQQQGLGASYRTESAQRQACMYASSAPPSEPVPSLEDISCNTWPSMPSYSSCTVTTVQPMDRLPYQHFSAHFTSGPLVPRLAGMANHGSPQLGEGMFQHQTSVAHQPVVRQCGPQTGLQSPGTLQPPEFLYSHGVPRTLSPHQYHSVHGVGMVPEWSDNS | – | – | – | binding result [6]: no binding |
| myc-epitope tag fusion HAND2 (other, not shown: small tags and cut ends, Expressed in transfected HEK293 cells; The tag's position is unknown; also called Myc-tagged HAND2; Heart- and neural crest derivatives-expressed protein 2) MSLVGGFPHHPVVHHEGYPFAAAAAAAAAAAASRCSHEENPYFHGWLIGHPEMSPPDYSMALSYSPEYASGAAGLDHSHYGGVPPGAGPPGLGGPRPVKRRGTANRKERRRTQSINSAFAELRECIPNVPADTKLSKIKTLRLATSYIAYLMDLLAKDDQNGEAEAFKAEIKKTDVKEEKRKKELNEILKSTVSSNDKKTKGRTGWPQHVWALELKQ | – | – | – | binding result [6]: no binding |

— patent US20210180023A1, “CARDIAC REPAIR BY REPROGRAMMING OF ADULT CARDIAC FIBROBLASTS INTO CARDIOMYOCYTES” (The Board of Regents of the University of Texas System, priority 2017, published 2021)
